Where two headings read alike, the source gives them in different places.
Biological target: IRAK4 (Homo sapiens (Human), UniProt Q9NWZ3)
Experiment: IRAK4 kinase activity, IMAP fluorescence polarization assay
Type: biochemical
Details: 100 μM ATP
In short: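 GST-tagged IRAK4 at 0.5 nM phosphorylates 100 nM fluorescent peptide substrate with 100 μM ATP in pH 7.2 Tris buffer containing MgCl2, DTT and Tween 20, 30 min at 25 °C. Reaction stopped with IMAP binding reagent; phosphorylation read as increased fluorescence polarization.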

[1] = 0.5 nM GST tagged IRAK4, read-out: IRAK4 IC50

Chain of IRAK4 (Q9NWZ3 whole entry): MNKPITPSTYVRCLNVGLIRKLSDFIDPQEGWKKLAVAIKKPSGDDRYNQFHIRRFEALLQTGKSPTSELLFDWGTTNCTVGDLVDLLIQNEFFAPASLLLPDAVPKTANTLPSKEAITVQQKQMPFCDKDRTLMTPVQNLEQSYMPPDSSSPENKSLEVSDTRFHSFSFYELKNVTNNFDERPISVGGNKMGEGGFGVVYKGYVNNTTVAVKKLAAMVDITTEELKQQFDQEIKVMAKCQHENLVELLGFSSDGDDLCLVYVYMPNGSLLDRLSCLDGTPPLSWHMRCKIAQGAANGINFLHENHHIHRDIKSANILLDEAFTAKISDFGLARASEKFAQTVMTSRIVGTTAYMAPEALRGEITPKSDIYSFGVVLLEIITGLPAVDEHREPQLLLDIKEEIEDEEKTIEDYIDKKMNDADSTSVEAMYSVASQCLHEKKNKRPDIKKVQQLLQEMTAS

Row | Structure (SMILES) | IC50 (read-out: IC50) [nM] | IC50 [1] [nM]
1 | CC(C)N1CCC(c2nc(N[C@@H]3CCCNC3)c(-c3nc4ccccc4s3)c(=O)[nH]2)CC1 [Example 228, (R)-5-(1,3-benzothiazol-2-yl)-6-[[(3R)-piperidin-3-yl]amino]-2-[1-(propan-2-yl)piperidin-4-yl]-3,4-dihydro-pyrimidin-4-one] | 660 | 
2 | O=c1[nH]c(C2CCN(CC3CC3)CC2)nc(N[C@@H]2CCCNC2)c1-c1nc2ccccc2s1 [Example 229, 5-(1,3-benzothiazol-2-yl)-2-[1-(cyclo-propylmethyl)piperidin-4-yl]-6-[[(3R)-piperidin-3-yl]amino]-3,4-dihydropyrimidin-4-one] | 340 | 
3 | O=c1[nH]c(C2CCN(C3CCC3)CC2)nc(N[C@@H]2CCCNC2)c1-c1nc2ccccc2s1 [Example 230, (R)-5-(1,3-benzothiazol-2-yl)-2-[1-cyclo-butylpiperidin-4-yl)-6-[(piperidin-3-yl)amino]-3,4-dihydropyrimidin-4-one] | 730 | 
4 | O=c1[nH]c(C2CCN(C3CCCC3)CC2)nc(N[C@@H]2CCCNC2)c1-c1nc2ccccc2s1 [Example 231, 5-(1,3-benzothiazol-2-yl)-2-(1-cyclo-pentylpiperidin-4-yl)-6-[[(3R)-piperidin-3-yl]amino]-3,4-dihydropyrimidin-4-one] | 620 | 
5 | O=c1[nH]c(C2CCN(C3CCCCC3)CC2)nc(N[C@@H]2CCCNC2)c1-c1nc2ccccc2s1 [Example 232, (R)-5-(1,3-benzothiazol-2-yl)-2-(1-cyclo-hexylpiperidin-4-yl)-6-[(piperidin-3-yl)amino]-3,4-dihydropyrimidin-4-one] | 450 | 
6 | O=c1[nH]c(C2CCN(C3CCOC3)CC2)nc(N[C@@H]2CCCNC2)c1-c1nc2ccccc2s1 (stereo partly drawn) [Example 233, 5-(1,3-benzothiazol-2-yl)-2-[1-(oxolan-3-yl)piperidin-4-yl]-6-[[(3R)-piperidin-3-yl]amino]pyrimidin-4-ol] | 180 | 
7 | CCS(=O)(=O)N1CCC(c2nc(N[C@@H]3CCCNC3)c(-c3nc4ccccc4s3)c(=O)[nH]2)CC1 [Example 236] | 550 | 
8 | CC(C)S(=O)(=O)N1CCC(c2nc(N[C@@H]3CCCNC3)c(-c3nc4ccccc4s3)c(=O)[nH]2)CC1 [Example 237, 5-(1,3-benzothiazol-2-yl)-6-[[(3R)-piperidin-3-yl]amino]-2-[1-(propane-2-sulfonyl)piperidin-4-yl]-3,4-dihydropyrimidin-4-one] | 210 | 
9 | O=c1[nH]c(C2CCN(S(=O)(=O)C3CC3)CC2)nc(N[C@@H]2CCCNC2)c1-c1nc2ccccc2s1 [Example 238, (R)-5-(1,3-benzothiazol-2-yl) 2-[1-(cyclopropane-sulfonyl)piperidin-4-yl]-6-[(piperidin-3-yl)amino]-3,4-dihydropyrimidin-4-one] | 170 | 
10 | CNC(=O)N1CCC(c2nc(N[C@@H]3CCCNC3)c(-c3nc4ccccc4s3)c(=O)[nH]2)CC1 [Example 240, (R)-4-[5-(1,3-benzo-thiazol-2-yl)-6-oxo-4-[[(3R)-piperidin-3-yl]amino]-1,6-dihydro-pyrimidin-2-yl]-N-methyl-piperidine-1-carboxamide] | 200 | 
11 | O=c1[nH]c(C2CCN(c3ccccn3)CC2)nc(N[C@@H]2CCCNC2)c1-c1nc2ccccc2s1 [Example 242, (R)-5-(benzo[d]thiazol-2-yl)-6-(piperidin-3-ylamino)-2-(1-(pyridin-2-yl)piperidin-4-yl)pyrimidin-4(3H)-one] |  | 180
12 | O=c1[nH]c(C2CCN(c3cnccn3)CC2)nc(N[C@@H]2CCCNC2)c1-c1nc2ccccc2s1 [Example 243, (R)-5-(benzo[d]thiazol-2-yl)-6-(piperidin-3-ylamino)-2-(1-(pyrazin-2-yl)piperidin-4-yl)pyrimidin-4(3H)-one] | 180 | 
13 | O=c1[nH]c(C2CCN(c3ncccn3)CC2)nc(N[C@@H]2CCCNC2)c1-c1nc2ccccc2s1 [Example 244, (R)-5-(benzo[d]thiazol-2-yl)-6-(piperidin-3-ylamino)-2-(1-(pyrimidin-2-yl)piperidin-4-yl)pyrimidin-4(3H)-one] | 260 | 
14 | O=c1[nH]c(C2CCN(c3cccnc3)CC2)nc(N[C@@H]2CCCNC2)c1-c1nc2ccccc2s1 [Example 245, (R)-5-(benzo[d]thiazol-2-yl)-6-(piperidin-3-ylamino)-2-(1-(pyridin-3-yl)piperidin-4-yl)pyrimidin-4(3H)-one] | 89 | 
15 | O=c1[nH]c(N2CCOCC2)nc(NCC(O)CO)c1-c1nc2ccccc2s1 (centres unmarked) [Example 246, 5-(1,3-benzothiazol-2-yl)-6-[(2,3-dihydroxypropyl)amino]-2-(morpholin-4-yl)-3,4-dihydropyrimidin-4-one] |  | 8100

Further lines, results first:

Row | IC50 (read-out: IC50) [nM] | IC50 [1] [nM] | Structure (SMILES)
16 | 7 |  | O=c1[nH]c(N2CCOCC2)nc(N[C@@H]2CCCNC2)c1-c1csc(-c2ccccc2)n1 [Example 218, (R)-2-morpholino-5-(2-phenylthiazol-4-yl)-6-(piperidin-3-ylamino)pyrimidin-4(3H)-one]
17 | 4 |  | O=c1[nH]c(N2CCOCC2)nc(N[C@@H]2CCCNC2)c1-c1csc(-n2ccnc2)n1 [Example 219, (R)-5-(2-(1H-imidazol-1-yl)thiazol-4-yl)-2-morpholino-6-(piperidin-3-ylamino)pyrimidin-4(3H)-one]
18 |  | 220 | O=c1[nH]c(N2CCOCC2)nc(N[C@@H]2CCCNC2)c1-c1ncc(F)cn1 [Example 220, (R)-5-fluoro-2′-morpholino-6′-(piperidin-3-ylamino)-[2,5′-bipyrimidin]-4′(3′H)-one]
19 | 167 |  | N#Cc1cccc(-c2c(N[C@@H]3CCCNC3)nc(N3CCOCC3)[nH]c2=O)n1 [Example 221, (R)-6-(2-morpholino-6-oxo-4-(piperidin-3-ylamino)-1,6-dihydropyrimidin-5-yl)picolinonitrile]
20 | 5620 |  | N#Cc1ccnc(-c2c(N[C@@H]3CCCNC3)nc(N3CCOCC3)[nH]c2=O)c1 [Example 222, (R)-2-(2-morpholino-6-oxo-4-(piperidin-3-ylamino)-1,6-dihydropyrimidin-5-yl)isonicotinonitrile]
21 | 81 |  | N#Cc1ccc(-c2c(N[C@@H]3CCCNC3)nc(N3CCOCC3)[nH]c2=O)nc1 [Example 223, (R)-6-(2-morpholino-6-oxo-4-(piperidin-3-ylamino)-1,6-dihydropyrimidin-5-yl)nicotinonitrile]
22 | 512 |  | O=c1[nH]c(N2CCOCC2)nc(N[C@@H]2CCCNC2)c1-c1ccc(C2CC2)cn1 [Example 224, (R)-5-(5-cyclopropylpyridin-2-yl)-2-morpholino-6-(piperidin-3-ylamino)pyrimidin-4(3H)-one]
23 | 466 |  | O=c1[nH]c(N2CCOCC2)nc(N[C@@H]2CCCNC2)c1-c1cc2ccccc2cn1 [Example 225, (R)-5-(isoquinolin-3-yl)-2-morpholino-6-(piperidin-3-ylamino)pyrimidin-4(3H)-one]
24 | 1400 |  | CCN1CCC(c2nc(N[C@@H]3CCCNC3)c(-c3nc4ccccc4s3)c(=O)[nH]2)CC1 [Example 227]
25 | 440 |  | O=c1[nH]c(C2CCN(C3CCOCC3)CC2)nc(N[C@@H]2CCCNC2)c1-c1nc2ccccc2s1 [Example 234, (R)-5-(benzo[d]thiazol-2-yl)-6-(piperidin-3-ylamino)-2-(1-(tetrahydro-2H-pyran-4-yl)piperidin-4-yl)pyrimidin-4(3H)-one]
26 | 3000 |  | N[C@H]1C[C@H]1Nc1nc(N2CCOCC2)[nH]c(=O)c1-c1nc2ccccc2s1 [Example 247, 6-[[(1R,2S)-2-amino-cyclopropyl]amino]-5-(1,3-benzothiazol-2-yl)-2-(morpholin-4-yl)-3,4-dihydropyrimidin-4-one]

— patent publication US9221809B2 (MERCK SHARP & DOHME CORP., priority 2011, dated 2015)
